Measurements as given in patent US4468511A, “C-20- And C-23-Modified macrolide derivatives” (Eli Lilly and Company, priority 1983, dated 1984).
Values after ≈ are worked out from the molar mass of the structure shown. Where two headings read alike, the source gives them in different places.

Experiments:
[1] = test system: Mycoplasma gallisepticum 34159; assay: MIC, conventional broth-dilution microtiter test; assay type: cell-based; settings: Mycoplasmoides gallisepticum
Procedure, shortened: (§1)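 Method depends on organism. Klebsiella pneumoniae was assayed on agar. Pasteurella spp. and Mycoplasma gallisepticum were assayed in broth microtiter dilution.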

[2] = test system: Streptococcus sp. 80; assay: MIC, conventional broth-dilution microtiter test; assay type: cell-based
Experimental: (§2) Certain of the derivatives are active against some gram-negative bacteria, such as Pasteurella species. The MIC's in Table II were determined by standard agar-dilution assays. The MIC's in Table III were obtained using a conventional broth-dilution microtiter test.

[3] = test system: Pasteurella multocida 60A; assay: MIC, conventional broth-dilution microtiter test; assay type: cell-based
Procedure, shortened: as §1

[4] = test system: Mycoplasma gallisepticum 41313; assay: MIC, conventional broth-dilution microtiter test; assay type: cell-based; settings: Mycoplasmoides gallisepticum
Procedure, shortened: as §1

[5] = test system: Pasteurella multocida 17E; assay: MIC, conventional broth-dilution microtiter test; assay type: cell-based
Procedure, shortened: as §1

[6] = test system: Pasteurella hemolytica 23C; assay: MIC, conventional broth-dilution microtiter test; assay type: cell-based
Procedure, shortened: as §1

[7] = test system: Mycoplasma synoviae; assay: MIC, conventional broth-dilution microtiter test; assay type: cell-based; settings: Mycoplasmopsis synoviae; broth-dilution microtiter; Mycoplasma synoviae; read-out: MIC
Procedure, shortened: (§3)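 Agar plates containing graded compound levels gave the Klebsiella value. Graded broth dilutions in microtiter plates gave the Pasteurella and Mycoplasma values.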

[8] = test system: Pasteurella multocida 68C; assay: MIC, conventional broth-dilution microtiter test; assay type: cell-based; settings: Pasteurella multocida, 68C
Procedure, shortened: as §1

[9] = test system: Pasteurella multocida 40G; assay: MIC, conventional broth-dilution microtiter test; assay type: cell-based
Procedure, shortened: as §1

[10] = test system: Mycoplasma hyorhinis; assay: MIC, conventional broth-dilution microtiter test; assay type: cell-based; settings: broth-dilution microtiter; Mycoplasma hyorhinis; read-out: MIC
Procedure, shortened: as §3

[11] = test system: Pasteurella hemolytica 22C; assay: MIC, conventional broth-dilution microtiter test; assay type: cell-based; settings: broth-dilution microtiter; Pasteurella hemolytica 22C; read-out: MIC
Procedure, shortened: as §1

[12] = test system: Pasteurella hemolytica 41D; assay: MIC, conventional broth-dilution microtiter test; assay type: cell-based
Procedure, shortened: as §1

[13] = test system: Mycoplasma gallisepticum; assay: MIC, conventional broth-dilution microtiter test; assay type: cell-based; settings: Mycoplasmoides gallisepticum
Procedure, shortened: as §1

[14] = test system: Pasteurella multocida 22A; assay: MIC, conventional broth-dilution microtiter test; assay type: cell-based
Procedure, shortened: as §1

[15] = test system: Staphylococcus aureus; assay: MIC, conventional broth-dilution microtiter test; assay type: cell-based; settings: broth-dilution microtiter, read-out: MIC
Experimental: as §2

[16] = test system: Staphylococcus aureus S13E; assay: microbe, parasite or virus in culture; assay type: cell-based
Experimental: (§4) The MIC's in Table II were determined by standard agar-dilution assays. The MIC's in Table III were obtained using a conventional broth-dilution microtiter test.

[17] = test system: Staphylococcus epidermidis EPI1; assay: microbe, parasite or virus in culture; assay type: cell-based; settings: Staphylococcus epidermidis, EPI1
Experimental: as §4

[18] = test system: Pasteurella multocida; assay: Pasteurella infection in one-day old chicks; assay type: in vivo; settings: subcutaneous, 30 mg/kg × 2, 1 and 4 hours post-challenge
Experimental: Certain of the formula 1 compounds of this invention have also shown in vivo activity against infections induced by gram-negative bacteria. Table V summarizes the results of tests in which illustrative compounds were evaluated against a Pasteurella infection in one-day old chicks. The compounds were administered parenterally after challenge of the chicks with Pasteurella multocida (0.1 ml of a 10^-4 dilution of a twenty-hour tryptose broth culture of an avian P. multocida given subcutaneously). In these tests, unless indicated otherwise, all non-medicated infected chicks died within 24 hours of Pasteurella challenge. In the tests summarized in Table V, the compounds were administered by subcutaneous injection at a dosage of 30 mg/kg, 1 and 4 hours post-challenge of the chicks with P. multocida.

[19] = test system: Streptococcus pyogenes 9960; assay: MIC, standard agar-dilution assay; assay type: cell-based
Experimental: as §2

[20] = test system: Escherichia coli EC14; assay: MIC, standard agar-dilution assay; assay type: cell-based
Experimental: as §2

[21] = test system: Escherichia coli TEM; assay: MIC, standard agar-dilution assay; assay type: cell-based
Procedure, shortened: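 Antibacterial activity toward the gram-negative organism Escherichia coli was assessed by conventional agar dilution. The MIC, reported in ug/mL, is the minimum compound concentration on agar that prevents growth.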

[22] = test system: Klebsiella pneumoniae KAE; assay: MIC, standard agar-dilution assay; assay type: cell-based; settings: agar-dilution; Klebsiella pneumoniae KAE; read-out: MIC
Procedure, shortened: as §1

[23] = test system: Staphylococcus aureus X1.1; assay: MIC, standard agar-dilution assay; assay type: cell-based; settings: Staphylococcus aureus, X1.1
Procedure, shortened: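 A standard agar-dilution assay was used to test compounds against the Staphylococcus aureus isolate X1.1. Bacterial growth on agar with different compound concentrations was assessed, and the minimum inhibitory concentration was recorded in ug/mL.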

[24] = test system: Staphylococcus aureus V41; assay: MIC, standard agar-dilution assay; assay type: cell-based; settings: Staphylococcus aureus, V41
Experimental: as §2

[25] = test system: Streptococcus Group D X66; assay: MIC, standard agar-dilution assay; assay type: cell-based
Experimental: as §2

[26] = test system: Streptococcus pneumoniae Park I; assay: MIC, standard agar-dilution assay; assay type: cell-based; settings: agar-dilution; Streptococcus pneumoniae Park I; read-out: MIC
Experimental: as §2

[27] = test system: Streptococcus pyogenes C203; assay: MIC, standard agar-dilution assay; assay type: cell-based
Experimental: as §2

[28] = test system: Klebsiella pneumoniae X26; assay: MIC, standard agar-dilution assay; assay type: cell-based; settings: agar-dilution; Klebsiella pneumoniae X26; read-out: MIC
Procedure, shortened: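 Two formats were used. Broth dilution in microtiter plates served for Pasteurella and Mycoplasma, while agar dilution served for Klebsiella.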

[29] = test system: Streptococcus pyogenes C203; assay: Protection of mice experimentally infected with S. pyogenes C203; assay type: in vivo; settings: mg/kg × 2, doses given 1 and 4 hours postinfection
Experimental: Some of the derivatives of this invention have shown in vivo antimicrobial activity against experimentally-induced infections in laboratory animals. When two doses of test compound were administered to mice experimentally infected with S. pyogenes C203, the activity observed was measured as an ED50 value [effective dose in mg/kg to protect 50% of the test animals: see Warren Wick, et al., J. Bacteriol. 81, 233-235 (1961)].

[30] = test system: Staphylococcus aureus X400; assay: MIC, standard agar-dilution assay; assay type: cell-based
Experimental: as §4

[31] = test system: Staphylococcus epidermidis EPI2; assay: MIC, standard agar-dilution assay; assay type: cell-based; settings: agar-dilution; Staphylococcus epidermidis EPI2; read-out: MIC
Experimental: as §4

[32] = test system: Haemophilus influenzae 76; assay: MIC, standard agar-dilution assay; assay type: cell-based
Experimental: as §4

[33] = test system: Haemophilus influenzae C.L.; assay: MIC, standard agar-dilution assay; assay type: cell-based
Experimental: as §4

CCC1OC(=O)CC(O)C(C)C(OC2OC(C)C(O)C(N(C)C)C2O)C(CCNCCc2ccccc2)CC(C)C(=O)C=CC(C)=CC1CO (stereo not drawn) [Compound 5, 20-N-Phenethylamino-20-deoxy-20-dihydro-OMT]
MIC [1]; 34159: 50 µg/mL (≈ 71.1 µM) | MIC ([2]; Streptococcus, SP.80): 1.56 µg/mL (≈ 2.22 µM) | MIC ([3]; broth-dilution microtiter, Pasteurella multocida 60A, Avian isolate, read-out: MIC): 3.12 µg/mL (≈ 4.44 µM) | MIC [4]; 41313: 50 µg/mL (≈ 71.1 µM) | MIC ([5]; broth-dilution microtiter, Pasteurella multocida 17E, Bovine isolate, read-out: MIC): 3.12 µg/mL (≈ 4.44 µM) | MIC ([6]; broth-dilution microtiter, Pasteurella hemolytica 23C, read-out: MIC): 3.12 µg/mL (≈ 4.44 µM) | MIC [7]: 3.12 µg/mL (≈ 4.44 µM) | MIC [8]: 1.56 µg/mL (≈ 2.22 µM) | MIC ([9]; broth-dilution microtiter, Pasteurella multocida 40G, read-out: MIC): 6.25 µg/mL (≈ 8.89 µM) | MIC [10]: > 50 µg/mL | MIC [11]: 6.25 µg/mL (≈ 8.89 µM) | MIC ([12]; broth-dilution microtiter, Pasteurella hemolytica 41D, read-out: MIC): 3.12 µg/mL (≈ 4.44 µM) | MIC [13]: 1.56 µg/mL (≈ 2.22 µM) | MIC ([14]; broth-dilution microtiter, Pasteurella multocida 22A, read-out: MIC): 6.25 µg/mL (≈ 8.89 µM) | MIC [15]: 6.25 µg/mL (≈ 8.89 µM) | MIC [16]: 8 µg/mL (≈ 11.4 µM) | MIC [17]: 4 µg/mL (≈ 5.69 µM) | Number of Deaths/Number Treated [18]: 1/10 | MIC ([19]; agar-dilution, Streptococcus 9960, read-out: MIC): 16 µg/mL (≈ 22.8 µM) | MIC ([20]; Escherichia coli, EC14): 64 µg/mL (≈ 91 µM) | MIC ([21]; Escherichia coli): 8 µg/mL (≈ 11.4 µM) | MIC [22]: > 128 µg/mL | MIC [23]: 4 µg/mL (≈ 5.69 µM) | MIC [24]: 8 µg/mL (≈ 11.4 µM) | MIC [25]: 8 µg/mL (≈ 11.4 µM) | MIC [26]: 1 µg/mL (≈ 1.42 µM) | MIC ([27]; Streptococcus pyogenes, C203): 2 µg/mL (≈ 2.85 µM) | MIC [28]: 4 µg/mL (≈ 5.69 µM) | ED50 ([29]; C203, mice, oral, read-out: ED50 Oral): > 100 mg/kg | ED50 ([29]; C203, sc, mice, subcutaneous, read-out: ED50 Subcutaneous): 7.2 mg/kg | MIC ([30]; Staphylococcus aureus, X400): 16 µg/mL (≈ 22.8 µM) | MIC [31]: 16 µg/mL (≈ 22.8 µM) | MIC ([32]; Haemophilus influenzae, 76): 8 µg/mL (≈ 11.4 µM) | MIC ([33]; Haemophilus influenzae): 8 µg/mL (≈ 11.4 µM)

CCC1OC(=O)CC(O)C(C)C(OC2OC(C)C(O)C(N(C)C)C2O)C(CCOc2ccccc2)CC(C)C(=O)C=CC(C)=CC1CN1CCCCCCC1 (stereo not drawn) [Compound 34, 20-O-Phenyl-20-dihydro-23-Octahydroazocin-1-yl-OMT]
MIC ([1]; broth-dilution microtiter, Mycoplasma gallisepticum 34159, Resistant strain, read-out: MIC): 50 µg/mL (≈ 64.8 µM) | MIC ([2]; broth-dilution microtiter, Streptococcus sp. 80, read-out: MIC): 0.78 µg/mL (≈ 1.01 µM) | MIC ([3]; Pasteurella multocida, 60A): 6.25 µg/mL (≈ 8.11 µM) | MIC ([4]; broth-dilution microtiter, Mycoplasma gallisepticum 41313, Resistant strain, read-out: MIC): 25 µg/mL (≈ 32.4 µM) | MIC ([5]; Pasteurella multocida, 17E): 3.12 µg/mL (≈ 4.05 µM) | MIC ([6]; Pasteurella, 23C): 3.12 µg/mL (≈ 4.05 µM) | MIC [7]: 12.5 µg/mL (≈ 16.2 µM) | MIC [8]: 3.12 µg/mL (≈ 4.05 µM) | MIC ([9]; Pasteurella multocida, 40G): 3.12 µg/mL (≈ 4.05 µM) | MIC [10]: 50 µg/mL (≈ 64.8 µM) | MIC [11]: 1.56 µg/mL (≈ 2.02 µM) | MIC ([12]; Pasteurella, 41D): 3.12 µg/mL (≈ 4.05 µM) | MIC [13]: 0.097 µg/mL (≈ 0.126 µM) | MIC ([14]; Pasteurella multocida, 22A): 6.25 µg/mL (≈ 8.11 µM) | MIC [15]: 0.39 µg/mL (≈ 0.506 µM) | MIC [16]: 0.25 µg/mL (≈ 0.324 µM) | MIC [17]: 0.25 µg/mL (≈ 0.324 µM) | Number of Deaths/Number Treated [18]: 10/10 | MIC [19]; 9960: 2 µg/mL (≈ 2.59 µM) | MIC ([20]; agar-dilution, Escherichia coli EC14, read-out: MIC): > 128 µg/mL | MIC ([21]; agar-dilution, Escherichia coli TEM, read-out: MIC): 8 µg/mL (≈ 10.4 µM) | MIC [22]: > 128 µg/mL | MIC [23]: 0.25 µg/mL (≈ 0.324 µM) | MIC [24]: 0.25 µg/mL (≈ 0.324 µM) | MIC [25]: 2 µg/mL (≈ 2.59 µM) | MIC [26]: 0.12 µg/mL (≈ 0.156 µM) | MIC ([27]; agar-dilution, Streptococcus pyogenes C203, read-out: MIC): 0.12 µg/mL (≈ 0.156 µM) | MIC [28]: 8 µg/mL (≈ 10.4 µM) | MIC ([30]; agar-dilution, Staphylococcus aureus X400, Methicillin-resistant strain, read-out: MIC): 0.5 µg/mL (≈ 0.648 µM) | MIC [31]: 0.12 µg/mL (≈ 0.156 µM) | MIC ([32]; agar-dilution, Haemophilus influenzae 76, Ampicillin-resistant strain, read-out: MIC): 8 µg/mL (≈ 10.4 µM) | MIC ([33]; agar-dilution, Haemophilus influenzae C.L., Ampicillin-sensitive strain, read-out: MIC): 4 µg/mL (≈ 5.19 µM)
